Laboratory results published in patent US8883826B2, “Alkynyl derivatives as modulators of metabotropic glutamate receptors” (Addex Pharma SA, priority 2004, dated 2014).

Target: T1, mGluR5 (Rattus norvegicus, UniProt P31424)
T1 construct: tissue Charles River Laboratories; host or cells: rat brain cortex membranes (Sprague-Dawley)
Assay: mGluR5 binding assay ([3H]-MPEP radioligand competition)
Settings: competition with 3 nM [3H]-MPEP, rat brain cortical membranes, 1 h at 4 °C; mean of at least three independent experiments in duplicate
Text: Activity of compounds of the invention was examined following a radioligand binding technique using whole rat brain and tritiated 2-methyl-6-(phenylethynyl)-pyridine ([^3H]-MPEP) as a ligand following similar methods than those described in F. Gasparini et al. Bioorg. Med. Chem. Lett. 2002, 12, 407-409 and in J. F. Anderson et al. J. Pharmacol. Exp. Ther. 2002, 303, 3, 1044-1051.
Cortices were dissected out from brains of 200-300 g Sprague-Dawley rats (Charles River Laboratories, L'Arbresle, France). Tissues were homogenized in 10 volumes (vol/wt) of ice-cold 50 mM Hepes-NaOH (pH 7.4) using a Polytron disrupter (Kinematica AG, Luzern, Switzerland) and centrifuged for 30 min at 40,000 g. (4° C.). The supernatant was discarded and the pellet washed twice by resuspension in 10 volumes 50 mM HEPES-NaOH. Membranes were then collected by centrifugation and washed before final resuspension in 10 volumes of 20 mM HEPES-NaOH, pH 7.4. Protein concentration was determined by the Bradford method (Bio-Rad protein assay, Reinach, Switzerland) with bovine serum albumin as standard.
[^3H]-MPEP Binding Experiments:
Membranes were thawed and resuspended in binding buffer containing 20 mM HEPES-NaOH, 3 mM MgCl2, 3 mM CaCl2, 100 mM NaCl, pH 7.4. Competition studies were carried out by incubating for 1 h at 4° C.: 3 nM [^3H]-MPEP (39 Ci/mmol, Tocris, Cookson Ltd, Bristol, U.K.), 50 μg membrane and a concentration range of 0.003 nM-30 μM of compounds, for a total reaction volume of 300 μl. The non-specific binding was defined using 30 μM MPEP. Reaction was terminated by rapid filtration over glass-fiber filter plates (Unifilter 96-well GF/B filter plates, Perkin-Elmer, Schwerzenbach, Switzerland) using 4×400 μl ice cold buffer using cell harvester (Filtermate, Perkin-Elmer, Downers Grove, USA). Radioactivity was determined by liquid scintillation spectrometry using a 96-well plate reader (TopCount, Perkin-Elmer, Downers Grove, USA).
The inhibition curves were generated using the Prism GraphPad program (Graph Pad Software Inc, San Diego, USA). IC50 determinations were made from data obtained from 8 point-concentration response curves using a non linear regression analysis.
The table below represents the mean of IC50 obtained from at least three independent experiments of selected molecules performed in duplicate.

T1 sequence (P31424 21-1203): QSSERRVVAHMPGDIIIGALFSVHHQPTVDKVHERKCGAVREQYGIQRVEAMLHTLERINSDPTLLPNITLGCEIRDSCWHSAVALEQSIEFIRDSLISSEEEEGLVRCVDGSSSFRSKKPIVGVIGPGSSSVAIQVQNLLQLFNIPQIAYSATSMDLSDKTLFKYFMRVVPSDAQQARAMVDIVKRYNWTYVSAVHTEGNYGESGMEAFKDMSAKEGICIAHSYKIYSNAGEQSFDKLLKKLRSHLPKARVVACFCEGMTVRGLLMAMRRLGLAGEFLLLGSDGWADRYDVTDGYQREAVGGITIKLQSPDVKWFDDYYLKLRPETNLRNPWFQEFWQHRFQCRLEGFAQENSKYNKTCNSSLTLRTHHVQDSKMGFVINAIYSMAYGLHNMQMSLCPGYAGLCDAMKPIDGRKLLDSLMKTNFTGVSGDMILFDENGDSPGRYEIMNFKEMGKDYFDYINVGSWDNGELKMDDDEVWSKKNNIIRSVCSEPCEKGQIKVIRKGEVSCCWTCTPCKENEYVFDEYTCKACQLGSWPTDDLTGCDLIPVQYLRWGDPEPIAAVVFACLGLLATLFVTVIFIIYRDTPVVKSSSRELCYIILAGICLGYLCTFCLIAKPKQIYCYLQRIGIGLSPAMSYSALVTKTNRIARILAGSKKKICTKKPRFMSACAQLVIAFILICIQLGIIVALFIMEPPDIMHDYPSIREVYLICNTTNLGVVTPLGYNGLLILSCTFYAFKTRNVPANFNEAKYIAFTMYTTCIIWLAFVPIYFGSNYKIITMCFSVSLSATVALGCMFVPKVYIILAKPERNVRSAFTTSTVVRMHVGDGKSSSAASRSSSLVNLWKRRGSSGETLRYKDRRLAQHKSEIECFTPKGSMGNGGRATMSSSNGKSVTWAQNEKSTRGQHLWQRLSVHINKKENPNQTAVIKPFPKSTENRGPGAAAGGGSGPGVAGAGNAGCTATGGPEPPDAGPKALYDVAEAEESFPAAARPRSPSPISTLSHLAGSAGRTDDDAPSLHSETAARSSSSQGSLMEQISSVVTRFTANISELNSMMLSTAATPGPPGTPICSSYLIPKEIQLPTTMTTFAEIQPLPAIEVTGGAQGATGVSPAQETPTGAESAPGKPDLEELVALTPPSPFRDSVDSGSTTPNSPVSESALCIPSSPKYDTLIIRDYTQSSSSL

Row | Compound | IC50 [µM]
1 | Fc1ccccc1-c1noc(CCC#Cc2ccccn2)n1 [Example 25, 2-(4-(3-(2-Fluorophenyl)-1,2,4-oxadiazol-5-yl)but-1-ynyl)pyridine] | < 0.5
2 | FC(F)(F)c1ccccc1-c1noc(CCC#Cc2ccccn2)n1 [Example 49] | < 10
3 | Clc1cccc2nc(CCC#Cc3ccccn3)oc12 [Example 63, 7-Chloro-2-(4-(pyridin-2-yl)but-3-ynyl)benzo[d]oxazole] | < 0.05
4 | Fc1ccc2nn(CCC#Cc3ccccn3)nc2c1F [Example 136, 4,5-Difluoro-2-(4-(pyridin-2-yl)but-3-ynyl)-2H-benzo[d][1,2,3]triazole] | < 10
5 | Fc1ccc(F)c2oc(CCC#Cc3ccccn3)nc12 [Example 96, 4,7-Difluoro-2-(4-(pyridin-2-yl)but-3-ynyl)benzo[d]oxazole] | < 0.05
6 | COc1cccc(-c2noc(CCC#Cc3ccccn3)n2)c1 [Example 41, 2-(4-(3-(3-Methoxyphenyl)-1,2,4-oxadiazol-5-yl)but-1-ynyl)pyridine] | < 10
7 | Cc1ccc2nn(CCC#Cc3ccccn3)nc2c1C [Example 177, 4,5-Dimethyl-2-(4-(pyridin-2-yl)but-3-ynyl)-2H-benzo[d][1,2,3]triazole] | < 10
8 | Cc1nc(C#CCCc2nc3cc(F)cc(Cl)c3o2)cs1 [Example 80, 7-Chloro-5-fluoro-2-(4-(2-methylthiazol-4-yl)but-3-ynyl)benzo[d]oxazole] | < 0.05
9 | FCc1cccc(C#CCCn2cc3c(Cl)cccc3n2)n1 [Example 152, 4-Chloro-2-(4-(6-(fluoromethyl)pyridin-2-yl)but-3-ynyl)-2H-indazole] | < 0.05
10 | Fc1cc(Cl)c2oc(CCC#Cc3ccccn3)nc2c1 [Example 77, 7-Chloro-5-fluoro-2-(4-(pyridin-2-yl)but-3-ynyl)benzo[d]oxazole] | < 0.05
11 | CN(CCC#Cc1ccccn1)C(=O)c1ccccc1F [Example 213, 2-Fluoro-N-methyl-N-(4-(pyridin-2-yl)but-3-ynyl)benzamide] | < 10
12 | Cc1cccc(C)c1-c1noc(CCC#Cc2ccccn2)n1 [Example 48, 2-(4-(3-(2,6-Dimethylphenyl)-1,2,4-oxadiazol-5-yl)but-1-ynyl)pyridine] | < 0.5
13 | CN(CCC#Cc1ccccn1)C(=O)c1cccc(F)c1 [Example 200, 3-Fluoro-N-methyl-N-(4-(pyridin-2-yl)but-3-ynyl)benzamide] | < 10
14 | CN(CCC#Cc1ccccn1)C(=O)c1ccccc1 [Example 211, N-Methyl-N-(4-(pyridin-2-yl)but-3-ynyl)benzamide] | < 10
15 | N#Cc1ccc2oc(CCC#Cc3ccccn3)nc2c1 [Example 79, 2-(4-(Pyridin-2-yl)but-3-ynyl)benzo[d]oxazole-5-carbonitrile] | < 10
16 | Fc1cccc(Cc2noc(CCC#Cc3ccccn3)n2)c1 [Example 23, 2-(4-(3-(3-Fluorobenzyl)-1,2,4-oxadiazol-5-yl)but-1-ynyl)pyridine] | < 10
17 | O=C(OCCC#Cc1ccccn1)c1ccccc1Cl [Example 235, 4-(Pyridin-2-yl)but-3-ynyl 2-chlorobenzoate] | < 0.05
18 | Cn1c(=O)n(CCCC#Cc2ccccn2)c2ccccc21 [Example 221, 1-Methyl-3-(5-(pyridin-2-yl)pent-4-ynyl)-1H-benzo[d]imidazol-2(3H)-one] | < 10
19 | Cc1ccc2nc(CCC#Cc3ccccn3)oc2c1 [Example 29, 6-Methyl-(2-(4-pyridin-2-yl)but-3-ynyl)benzo[d]oxazole] | < 10
20 | COc1cccc(Cc2noc(CCC#Cc3ccccn3)n2)c1 [Example 24, 2-(4-(3-(3-Methoxybenzyl)-1,2,4-oxadiazol-5-yl)but-1-ynyl)pyridine] | < 10
21 | Fc1cccc2sc(CCC#Cc3ccccn3)nc12 [Example 101, 4-Fluoro-2-(4-(pyridin-2-yl)but-3-ynyl)benzo[d]thiazole] | < 0.05
22 | C(#Cc1ccccn1)CCc1nc(-c2cccc3ccccc23)no1 [Example 50, 2-(4-(3-(Naphthalen-1-yl)-1,2,4-oxadiazol-5-yl)but-1-ynyl)pyridine] | < 10
23 | Fc1cccc(-c2noc(CCC#Cc3ccccn3)n2)c1 [Example 26, 2-(4-(3-(3-Fluorophenyl)-1,2,4-oxadiazol-5-yl)but-1-ynyl)pyridine] | < 10
24 | Cc1ccccc1-c1noc(CCC#Cc2ccccn2)n1 [Example 15] | < 0.5

Further lines, results first:

Row | IC50 [µM] | Compound
25 | < 10 | Cn1ccc(C#CCCc2nc3ccccc3s2)n1 [Example 121, 2-(4-(1-Methyl-1H-pyrazol-3-yl)but-3-ynyl)benzo[d]thiazole]
26 | < 0.05 | Clc1cccc2oc(CCC#Cc3ccccn3)nc12 [Example 88, 4-Chloro-2-(4-(pyridin-2-yl)but-3-ynyl)benzo[d]oxazole]
27 | < 0.05 | C(#Cc1ccccn1)CCc1ncc(-c2ccccc2)o1 [Example 65, 2-(4-(5-Phenyloxazol-2-yl)but-1-ynyl)pyridine]
28 | < 10 | Cc1ccc2nn(CCC#Cc3cccc(CF)n3)nc2c1C [Example 178, 2-(4-(6-(Fluoromethyl)pyridin-2-yl)but-3-ynyl)-4,5-dimethyl-2H-benzo[d][1,2,3]triazole]
29 | < 10 | C(#Cc1ccccn1)CCc1nc(-c2ccccc2)no1 [Example 10]
30 | < 10 | COc1cccc2oc(CCC#Cc3ccccn3)nc12 [Example 72, 4-Methoxy-2-(4-(pyridin-2-yl)but-3-ynyl)benzo[d]oxazole]
31 | < 10 | C(#Cc1ccccn1)CCNc1nc2ccccc2s1 [Example 220, N-(4-(Pyridin-2-yl)but-3-ynyl)benzo[d]thiazol-2-amine]
32 | < 10 | C(#Cc1ccccn1)CCn1cc(-c2ccccc2)cn1 [Example 122, 2-(4-(4-Phenyl-1H-pyrazol-1-yl)but-1-ynyl)pyridine]
33 | < 0.05 | FCc1cccc(C#CCCn2nc3cccc(Cl)c3n2)n1 [Example 147, 4-Chloro-2-(4-(6-(fluoromethyl)pyridin-2-yl)but-3-ynyl)-2H-benzo[d][1,2,3]triazole]
34 | < 0.05 | Cc1nc(C#CCCc2nc3ccccc3o2)cs1 [Example 31, 2-(4-(2-Methylthiazol-4-yl)but-3-ynyl)benzo[d]oxazole]
35 | < 0.05 | Fc1cc(Br)c2oc(CCC#Cc3ccccn3)nc2c1 [Example 82, 7-Bromo-5-fluoro-2-(4-(pyridin-2-yl)but-3-ynyl)benzo[d]oxazole]
36 | < 10 | CN(CCC#Cc1ccccn1)S(=O)(=O)c1ccc(F)cc1 [Example 206, 4-Fluoro-N-methyl-N-(4-(pyridin-2-yl)but-3-ynyl)benzenesulfonamide]
37 | < 10 | CN(CCC#Cc1ccccn1)C(=O)c1cccc(Cl)c1 [Example 205, 3-Chloro-N-methyl-N-(4-(pyridin-2-yl)but-3-ynyl)benzamide]
38 | < 10 | COc1ccc(-c2noc(CCC#Cc3ccccn3)n2)cc1 [Example 42, 2-(4-(3-(4-Methoxyphenyl)-1,2,4-oxadiazol-5-yl)but-1-ynyl)pyridine]
39 | < 10 | Clc1cccc2cn(CCC#Cc3ccccn3)nc12 [Example 123, 7-Chloro-2-(4-(pyridin-2-yl)but-3-ynyl)-2H-indazole]
40 | < 10 | O=C(NCCC#Cc1cccc(CF)n1)c1ccccc1Cl [Example 247, 2-Chloro-N-(4-(6-(fluoromethyl)pyridin-2-yl)but-3-ynyl)benzamide]
